Consider 5 compounds from patent US11191273B2, “Methods of making pyranopyrans such as pyranopyran nitrile and methods of using pyranopyrans such as pyranopyran nitrile” (The United States of America, as Represented by the …, priority 2018, dated 2021).

Data set [1] concerns cork oak (Quercus suber) cuttings. The following applies: literature; cited from earlier work.
Data set [2] deals with Flavobacterium columnare ALM-00-173. Kind of data set: rapid 96-well microplate antibacterial bioassay against F. columnare. It counts as cell-based. As to conditions: F. columnare ALM-00-173; for IC50: ALM00173, 24 h. The text has this: An isolate of F. columnare [isolate ALM-00-173 (genomovar II)] was obtained from Dr. Covadonga Arias (School of Fisheries, Aquaculture and Aquatic Sciences, Auburn University, Auburn, Ala.). In order to assure purity, cultures of F. columnare ALM-00-173 were maintained separately on modified Shieh (MS) agar plates (pH 7.2-7.4) (Decostere, A., et al., Laboratory Animals, 36: 396-402 (2003)). Prior to conducting the bioassay, colonies of F. columnare ALM-00-173 were used to prepare the assay culture material by culturing in 75 mL of MS broth for 24 h at 29±1° C. at 150 rpm on a rotary shaker (model C24KC; New Brunswick Scientific, Edison, N.J.). After overnight incubation, a 0.5 McFarland standard of F. columnare ALM-00-173 culture material was prepared by transferring cells from the broth culture to fresh MS broth (Schrader, K. K., and M. D. Harries, Aquaculture Research, 37: 928-937 (2006)).
(§1) The pure test compounds (−)-diplopyrone and (−)-diplopyrone acetate were dissolved in technical grade 100% methanol while (−)-diplopyrone nitrile was dissolved in technical grade 100% acetone. The three test compounds were evaluated for antibacterial activity against F. columnare ALM-00-173 and E. ictaluri S02-1039 using a rapid 96-well microplate bioassay and following previous procedures (Schrader and Harries 2006). Florfenicol was included as a positive drug control. Control wells (no test material added) were also included in each assay. Final test concentrations of compounds and florfenicol were 0.01, 0.1, 1.0, 10.0, 100.0, and 1000.0 μM. Three replications were used for each dilution of each test compound and drug control, and final results were converted to units of mg/L to allow comparison with previous studies.
(§2) The 24-h 50% inhibition concentration (IC50) and minimum inhibitory concentration (MIC) were determined using sterile 96-well (flat bottom) polystyrene microplates (Corning Costar Corp., Acton, Mass.) for (−)-diplopyrone and (−)-diplopyrone acetate. In order to prevent solvent interaction with polystyrene, sterile 96-well (flat bottom) quartz microplates (Hellma Cells, Inc., Forest Hills, N.Y.) were used for (−)-diplopyrone nitrile. Initially, dissolved test compounds or florfenicol were micropippeted separately into individual microplate wells (10 μL/well), and the solvent was allowed to completely evaporate before 0.5 MacFarland bacterial culture was added to the microplate wells (200 μL/well). Microplates were incubated at 29±1° C. (VWR model 2005 incubator; Sheldon Manufacturing, Inc., Cornelius, Oreg.). A microplate photometer (SpectraCount, Packard Instrument Company, Meriden, Conn.) was used to measure the absorbance (630 nm) of the microplate wells at time 0 and 24-h. Two replicates of each microplate bioassay were made. Cell viability of F. columnare ALM-00-173 and E. ictaluri S02-1039 was determined at the completion of the growth bioassay for each test compound using the yellow dye 3(4,5-dimethylthiazol-2-yl)-2,5-diphenyl tetrazolium bromide (MTT) and previously outlined procedures (Schrader and Harries 2006). In addition, the minimum bactericidal concentration (MBC) was determined for very active compounds (Schrader and Harries 2006).
(§3) The means and standard errors of absorbance measurements were calculated, graphed, and compared to controls to determine the MIC, 24-h IC50, and MTT 24-h IC50 for each test compound. The 24-h IC50 and MIC results for each test compound were divided by the respective 24-h IC50 and MIC results obtained for the positive control florfenicol to determine the relative-to-drug-control florfenicol (RDCF) values.

Data set [3] deals with Lemna paucicostata (L.) Hegelm. (duckweed). The data set can be described thus: duckweed phytotoxicity bioassay (growth by frond area). It counts as in vivo. As to conditions: for visual symptoms: 7 days of exposure, FIG. 7. The protocol:
Pyranopyran (2), pyranopyran acetate (3), and pyranopyran nitrile (4) were also evaluated for phytotoxic activity using the aquatic plant Lemna paucicostata (L.) Hegelm. (duckweed). Dose-response curves from the aquatic plant Lemna paucicostata (L.) Hegelm. (duckweed) were obtained from experiments conducted. Duckweed was grown and treated as described by Michel et al. (Michel, A., et al., Environ. Toxicol. Chem., 23: 1074-1079 (2004)) with slight modifications. Duckweed stocks were cultivated from single L. paucicostata colonies (an aggregate of one mother and two daughter fronds to assure genetic uniformity) in Hoagland's No. 2 basal salt mixture with added iron (1000× Fe-EDTA solution, pH 5.5) in sterile trays. The plants were grown in a growth chamber under the following controlled conditions: continuous light at 26° C. and 120 μmol·s^−1·m^−2 photosynthetically active radiation. Hoagland solution was changed every two days. Bioassays were conducted in sterile […] (Falcon, Corning Life Science). Each well contained 5 mL with 1% EtOH with or without test compounds. Test compounds were dissolved in EtOH. A graphic template of the six-well plates was used for LemnaTec (LemnaTec, Würselen, Germany) image analysis software. Treatment plates, with two three-frond plants of the approximately same size per well, were incubated during 7 days of treatment. Each treatment was replicated three times. IC50 values (concentration of test compound that inhibits growth 50%) were determined with R statistics software. Effects on growth are evaluated by measuring area of the plant fronds with image analysis.

Data set [4] deals with Edwardsiella ictaluri S02-1039. The data set can be described thus: rapid 96-well microplate antibacterial bioassay against E. ictaluri. It counts as cell-based. The following applies: E. ictaluri S02-1039; for MIC RDCF (relative-to-drug-control florfenicol): MIC divided by MIC of florfenicol; for IC50: S021039, 24 h.
Excerpt: An isolate of E. ictaluri (isolate S02-1039) was obtained from a person (formerly with the College of Veterinary Medicine, Mississippi State University, Stoneville, Miss.). In order to assure purity, cultures of E. ictaluri S02-1039 were maintained on 3.8% Mueller-Hinton (MH) agar plates (pH 7.3) (Becton, Dickinson and Company, Sparks, Md.). Prior to conducting the bioassay, colonies of E. ictaluri S02-1039 were used to prepare assay culture material by aseptically transferring bacterial cells from colonies to 45 mL of 3.8% MH broth to form a bacterial cell density of 0.5 McFarland standard.
as §1, §2, §3

In data set [5] the test system is Lemna paucicostata (L.) Hegelm. (duckweed). As to conditions: commercial herbicides; Michel et al. 2004; read-out: IC50 in the same duckweed bioassay; cited from earlier work.

SMILES strings stand for the structures. Converted amounts (≈) assume the structure as drawn. Read-outs that look alike come from different tables or passages of the source.

Turning to `C[C@H](O)[C@H]1C=C[C@@H]2OC(=O)C=C[C@@H]2O1` [Diplopyrone, 6-[(1S)-1-hydroxyethyl]-2,4a(S),6(R),8a(S)-tetrahydropyrano-[3,2-b]-pyran-2-one], the phytotoxic effect result in data set [1] is “causes necrosis and wilting”.

By melting point is commonly meant the temperature of the solid-liquid transition. For the compound `N#C[C@@H]1C=C[C@H]2OC(=O)C=C[C@H]2O1` [Pyranopyran nitrile (4), (4aR,6S,8aR)-6-Cyano-6,8a-dihydropyrano-[3,2-b]pyran-2(4aH)-one], the melting point was in the range of 162 to 164 °C. Moreover, the “MIC (minimum inhibitory concentration)” value in data set [2] (24 h, SE in parentheses) was 17.7 (0) mg/L. In data set [2] (MIC divided by MIC of florfenicol), the “MIC RDCF (relative-to-drug-control florfenicol)” value is listed as 49.2 (0). Also, in data set [2] (Flavobacterium columnare, absorbance 630 nm, SE in parentheses, read-out: 24-h IC50 (50% inhibition concentration)), the IC50 was determined as 7.5 ± 0.5 µg/mL (≈ 42.3 µM). For the same compound, the IC50 in data set [2] (Flavobacterium columnare, tetrazolium bromide dye MTT, read-out: MTT 24-h IC50 (cell viability)) amounted to 16.8 ± 0.9 µg/mL (≈ 94.8 µM). In addition, the MIC in data set [2] (Flavobacterium columnare, ALM00173, 24 h, SE in parentheses, read-out: MIC (minimum inhibitory concentration)) was 17.7 µg/mL (≈ 99.9 µM). For the same compound, in data set [3] (Lemna aequinoctialis, 144 h, Lemna paucicostata growth, frond area, FIG. 6, 6 days of exposure, read-out: IC50 (concentration that inhibits growth 50%)), the IC50 is < 1000 nM. Further, in data set [3] (at 33 μM and higher), the visual symptoms result is “some of the plants had no chlorophyll and were necrotic”. Also, in data set [3] (at 100 μM), the visual symptoms entry is “many of the plants were devoid of chlorophyll and necrotic”. Besides, the “MIC (minimum inhibitory concentration)” value in data set [4] (24 h, SE in parentheses) was 0.002 (0) mg/L. Moreover, the “MIC RDCF (relative-to-drug-control florfenicol)” value in data set [4] is on record as 0.5 (0). In addition, the “MIC RDCF (relative-to-drug-control florfenicol)” value in data set [4] (listed as pyranopyran nitrile (4)) was 0.5±0. Also, the IC50 in data set [4] (Edwardsiella ictaluri, absorbance 630 nm, SE in parentheses, read-out: 24-h IC50 (50% inhibition concentration)) was 7.7 ± 1.2 µg/mL (≈ 43.5 µM). Further, in data set [4] (Edwardsiella ictaluri, tetrazolium bromide dye MTT, read-out: MTT 24-h IC50 (cell viability)), the IC50 stood at 64.6 µg/mL (≈ 365 µM). The MIC in data set [4] (Edwardsiella ictaluri, S021039, 24 h, SE in parentheses, read-out: MIC (minimum inhibitory concentration)) came to 0.002 µg/mL (≈ 0.0113 µM). Moreover, the MBC in data set [4] (Edwardsiella ictaluri, S021039, bound is the highest test concentration, read-out: minimum bactericidal concentration (MBC)) is > 177 µg/mL.

With `CCc1cnc(C2=NC(C)(C(C)C)C(=O)N2)c(C(=O)O)c1` (centres unmarked) [imazethapyr], in data set [5], the IC50 is 930 nM.

On to `CC(C)c1ccc(NC(=O)N(C)C)cc1` [isoproturon], for which, in data set [5], the IC50 was 350 nM.

For the compound `CCC(CC)Nc1c([N+](=O)[O-])cc(C)c(C)c1[N+](=O)[O-]` [pendimethalin], the IC50 in data set [5] was 380 nM.
